Counter-ions that a name gives are not always drawn.
Assays:
[1] = tested on: NB-1 cells (a human neuroblastoma strain); experiment: Differentiation inducing effect for NB-1 cells; format: cell-based; conditions: 4-hour incubation
Description: The differentiation inducing effect for the NB-1 cells (a human neuroblastoma strain: cell strain derived from neuroblastoma generated in infantile adrenal gland) was examined. The NB-1 cells were applied to a 96-well plate at a rate of 2×10^3 cells/well and precultured for 3 days. After attachment and growth were stabilized, the medium (RPMI 1640+10% fetal calf serum+SM.PC) was exchanged and a 10 μl solution of each test compound was added. Then, the cells were kept under constant observation to determine the occurrence or non-occurrence of differentiation. 2 mM (1.037 mg/ml) of dibutyryl cAMP dissolved in RPMI 1640 was used as positive control. NKH-477 and 14,15-dihydro-6-(3-dimethylaminopropionyl)forskolin hydrochloride were dissolved in a physiological saline. Forskolin was dissolved in DMSO and diluted with a physiological saline. The criterion for judgment of morphological change in differentiation is as follows. The figures in the parentheses are the ratio of the differentiated cells to the whole cells. It was confirmed that DMSO was totally devoid of differentiation inducing and promoting action at the concentrations used in this test.

[2] = tested on: total peripheral vascular resistance; experiment: Effect on peripheral vascular resistance in anesthetized dogs; format: in vivo, dog; conditions: for Change in total peripheral vascular resistance: mean ± SE
Description: (2) Effect on peripheral vascular resistance in an anesthetized dogs was examined. Blood pressure was measured with a pressure transducer (CP-01 mfd. by Century Technology Co.) connected to a polyethylene tube inserted into a right femoral artery of a dog anesthetized with pentobarbital, and the cardiac output was measured according to a thermodilution method by using a dilution type cardiac output counter (MLC-4200 mfd. by Nihon Kohden K. K.) and a 7F thermodilution catheter (TC-704 mfd. by Nihon Kohden K. K.) inserted into the pulmonary artery through the right femoral vein. The total peripheral vascular resistance was determined by dividing the mean blood pressure by the cardiac output. NKH-477 was dissolved in a physiological saline and infused into a right cephalic vein at rates of 0.15, 0.3 and 0.6 μg/kg/min (flow rate: 0.2 ml/min) for 2 hours by using a continuous injection pump (Model 975C mfd. by Harvard Corp.). For the control, physiological saline was similarly infused at a rate of 0.2 ml/min.

femoral blood flow = experiment: Effect on femoral blood flow in anesthetized dogs; format: in vivo, dog; conditions: for Increase in femoral blood flow rate: mean ± SE
Description: (1) Effect on femoral blood flow in anesthetized dogs was tested.
A non-cannulating probe (FF-030T mfd. by Nihon Kohden K. K.) of an electromagnetic flow meter (MFV-2100 mfd. by Nihon Kohden K. K.) was placed around the left femoral artery of a dog anesthetized with pentobarbital to measure femoral bloow flow rate. The femoral blood flow rate was recorded on an ink-written recorder (WI-681G by Nihon Kohden K. K.).
NKH-477 was dissolved in a physiological saline and injected into the right cephalic vein through a Nelaton's tube.

## C=C[C@@]1(C)CC(=O)[C@]2(O)[C@@]3(C)[C@@H](O)CCC(C)(C)[C@@H]3[C@H](OC(=O)CCN(C)C)[C@H](OC(C)=O)[C@@]2(C)O1 [NKH-477, 6-(3-dimethylaminopropionyl)forskolin hydrochloride]
[1]; Dose 1.56 μM
  Effect (differentiation inducing): ± (slight (<20%))
[1]; Dose 6.25 μM
  Effect (differentiation inducing): ++ (heavy (>80%))
[1]; Dose 25.00 μM
  Effect (differentiation inducing): ++ (heavy (>80%))
[1]; Dose 100.00 μM
  Effect (differentiation inducing): ++ (heavy (>80%))
[2]; 0.15 μg/kg/min, 10 min from start of infusion, control 2.1 ± 1.5
  Change in total peripheral vascular resistance: -2.7 ± 2.4%
[2]; 0.15 μg/kg/min, 30 min after cessation of infusion, control 31.4 ± 13.9
  Change in total peripheral vascular resistance: 7.4 ± 7.4%
[2]; 0.15 μg/kg/min, 30 min from start of infusion, control 4.0 ± 2.3
  Change in total peripheral vascular resistance: -6.2 ± 3.7%
[2]; 0.15 μg/kg/min, 60 min after cessation of infusion, control 29.1 ± 9.7
  Change in total peripheral vascular resistance: 15.7 ± 10.4%
[2]; 0.15 μg/kg/min, 60 min from start of infusion, control 13.8 ± 3.4
  Change in total peripheral vascular resistance: -9.1 ± 5.7%
[2]; 0.15 μg/kg/min, 120 min after cessation of infusion, control 26.8 ± 12.5
  Change in total peripheral vascular resistance: 12.8 ± 7.2%
[2]; 0.15 μg/kg/min, 120 min from start of infusion, control 20.5 ± 9.2
  Change in total peripheral vascular resistance: -5.7 ± 6.6%
[2]; 0.3 μg/kg/min, 10 min from start of infusion, control 2.1 ± 1.5
  Change in total peripheral vascular resistance: -3.7 ± 2.9%
[2]; 0.3 μg/kg/min, 30 min after cessation of infusion, control 31.4 ± 13.9
  Change in total peripheral vascular resistance: 6.7 ± 7.0%
[2]; 0.3 μg/kg/min, 30 min from start of infusion, control 4.0 ± 2.3
  Change in total peripheral vascular resistance: -10.4 ± 3.1%
[2]; 0.3 μg/kg/min, 60 min after cessation of infusion, control 29.1 ± 9.7
  Change in total peripheral vascular resistance: 17.1 ± 6.0%
[2]; 0.3 μg/kg/min, 60 min from start of infusion, control 13.8 ± 3.4
  Change in total peripheral vascular resistance: -10.2 ± 4.1%
[2]; 0.3 μg/kg/min, 120 min after cessation of infusion, control 26.8 ± 12.5
  Change in total peripheral vascular resistance: 17.2 ± 9.2%
[2]; 0.3 μg/kg/min, 120 min from start of infusion, control 20.5 ± 9.2
  Change in total peripheral vascular resistance: -11.5 ± 4.7%
[2]; 0.6 μg/kg/min, 10 min from start of infusion, control 2.1 ± 1.5
  Change in total peripheral vascular resistance: -18.3 ± 8.6%
[2]; 0.6 μg/kg/min, 30 min after cessation of infusion, control 31.4 ± 13.9
  Change in total peripheral vascular resistance: -13.4 ± 7.6%
[2]; 0.6 μg/kg/min, 30 min from start of infusion, control 4.0 ± 2.3
  Change in total peripheral vascular resistance: -28.1 ± 5.9%
[2]; 0.6 μg/kg/min, 60 min after cessation of infusion, control 29.1 ± 9.7
  Change in total peripheral vascular resistance: -4.1 ± 9.1%
[2]; 0.6 μg/kg/min, 60 min from start of infusion, control 13.8 ± 3.4
  Change in total peripheral vascular resistance: -29.0 ± 6.4%
[2]; 0.6 μg/kg/min, 120 min after cessation of infusion, control 26.8 ± 12.5
  Change in total peripheral vascular resistance: 11.8 ± 12.9%
[2]; 0.6 μg/kg/min, 120 min from start of infusion, control 20.5 ± 9.2
  Change in total peripheral vascular resistance: -28.0 ± 5.4%
[2]; after cessation of the infusion
  recovery of total peripheral vascular resistance: substantially restored in 2 hours after cessation of the infusion
[2]; i.v. infusion 0.15-0.6 μg/kg/min for 2 hours
  total peripheral vascular resistance, course in words: decreased gradually after the start of infusion
Femoral blood flow; 1 μg/kg i.v., n = 6 (SE 2.9 printed)
  Increase in femoral blood flow rate: 7.6%
Femoral blood flow; 3 μg/kg i.v., n = 6 (SE 5.2 printed)
  Increase in femoral blood flow rate: 22.9%
Femoral blood flow; 10 μg/kg i.v., n = 6 (SE 17.7 printed)
  Increase in femoral blood flow rate: 61.7%
Femoral blood flow; intravenous injection of 1-10 μg/kg
  blood flow rate in the femoral artery: increased the blood flow rate in the femoral artery dose-dependently
Femoral blood flow; printed 30 μmg/kg i.v., n = 6 (SE 28.7 printed)
  Increase in femoral blood flow rate: 62.2%

— US5789439A, “Pharmaceutical use of forskolin derivatives” (Nippon Kayaku Kabushiki Kaisha, priority 1990, dated 1998)
